Patent US8895744B2, “Alfa-carboline inhibitors of NPM-ALK, RET, and Bcr-Abl” (Universita' Degli Studi di Milano-Bicocca, priority 2008, dated 2014)
Where two headings read alike, the source gives them in different places.

What was measured:
[1] = target: T1, Recombinant Abl T315I protein (Homo sapiens, UniProt P00519, T315I); experiment: Abl T315I mutant kinase inhibitory activity, ELISA-based in vitro kinase assay; format: biochemical; settings: purified Abl T315I, 0.3 mM ATP
T1 construct: made in house; host or cells: Sf9 cells (baculovirus)
Outline: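 His-tagged human Abl T315I from Sf9 cells, preincubated 10 min at room temperature with inhibitor, then reacted on peptide-coated plates with 0.3 mM ATP, 1 mM MnCl2, 5 mM MgCl2 in 50 mM Tris pH 7.5. Phosphotyrosine detected by anti-pTyr/HRP ELISA at 450 nm; IC50 as 50% inhibition vs control.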

Recombinant Ret protein = target: T2, Recombinant Ret protein (Homo sapiens, UniProt P07949); experiment: RET kinase inhibitory activity, ELISA-based in vitro kinase assay; format: biochemical; settings: purified Ret, 0.3 mM ATP
T2 construct: made in house; host or cells: Sf9 cells (baculovirus)
T2 sequence (P07949 29-1114): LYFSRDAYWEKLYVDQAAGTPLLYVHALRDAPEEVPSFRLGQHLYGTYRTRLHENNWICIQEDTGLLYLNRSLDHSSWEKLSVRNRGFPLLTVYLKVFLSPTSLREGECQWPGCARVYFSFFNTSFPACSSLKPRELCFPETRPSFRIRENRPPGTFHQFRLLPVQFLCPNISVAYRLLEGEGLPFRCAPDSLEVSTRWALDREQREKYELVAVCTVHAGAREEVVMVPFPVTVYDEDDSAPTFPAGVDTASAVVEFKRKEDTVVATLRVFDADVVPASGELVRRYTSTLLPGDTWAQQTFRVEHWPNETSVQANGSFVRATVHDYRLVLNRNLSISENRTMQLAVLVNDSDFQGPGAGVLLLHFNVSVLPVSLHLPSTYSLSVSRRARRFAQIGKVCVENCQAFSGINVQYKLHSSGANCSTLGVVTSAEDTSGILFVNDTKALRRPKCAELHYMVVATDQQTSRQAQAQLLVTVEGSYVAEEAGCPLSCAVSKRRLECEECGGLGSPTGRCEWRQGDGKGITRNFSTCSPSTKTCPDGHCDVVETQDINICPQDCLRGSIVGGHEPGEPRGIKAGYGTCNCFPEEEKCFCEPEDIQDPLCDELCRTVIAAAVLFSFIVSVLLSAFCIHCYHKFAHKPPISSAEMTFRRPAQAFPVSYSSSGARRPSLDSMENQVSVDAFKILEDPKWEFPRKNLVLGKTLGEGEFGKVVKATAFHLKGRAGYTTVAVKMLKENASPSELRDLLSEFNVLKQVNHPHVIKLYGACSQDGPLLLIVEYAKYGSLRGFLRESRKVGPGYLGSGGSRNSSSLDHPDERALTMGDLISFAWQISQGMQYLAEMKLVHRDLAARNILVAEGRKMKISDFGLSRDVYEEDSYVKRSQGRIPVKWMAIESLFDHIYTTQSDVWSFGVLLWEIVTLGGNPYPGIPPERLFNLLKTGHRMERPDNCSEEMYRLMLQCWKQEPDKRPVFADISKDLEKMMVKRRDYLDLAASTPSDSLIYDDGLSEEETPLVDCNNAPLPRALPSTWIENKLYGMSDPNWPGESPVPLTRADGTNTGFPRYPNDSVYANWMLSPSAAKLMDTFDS
Method: Recombinant ALK kinase was expressed in Sf9 insect cells using the pBlueBacHis2C baculovirus vector system and purified using an anion exchange Fast Flow Q-sepharose column (Amersham-Pharmacia Biotech) followed by HiTrap™-nickel affinity column (Amersham-Pharmacia Biotech). Purified ALK protein was used to screen inhibitors in the ELISA-based kinase assay. A Nunc Immuno 96 well plate was incubated overnight at 37° C. with coating solution (125 μL/well) containing ALK peptide substrate ([…]) (SEQ ID NO: 1) at various concentrations in PBS. Wells were then washed with 200 μL of wash buffer (PBS-Tween 0.05%) and left to dry for at least 2 h at 37° C. The kinase reaction was performed in the presence of 50 mM Tris pH 7.5, 5 mM MnCl2, 5 mM MgCl2, 0.3 mM ATP and purified rALK in a total volume of 100 μL/well at 30° C. for 15 min. For inhibitor testing the reaction mix was preincubated with the inhibitor or solvent control for 10 min at room temperature before transferring to the ELISA plate. After the reaction wells were washed 5 times with 200 μL of wash buffer. Phosphorylated peptide was detected using 100 μL/well of a mouse monoclonal anti-phosphotyrosine antibody (clone 4G10 Upstate Biotech Ltd) diluted 1:2000 in PBS+4% BSA. After 30 min incubation at room temperature the antibody was removed and wells were washed as described above. 100 μL of a secondary antibody (anti-mouse IgG, Horseradish Peroxidase linked whole antibody, Amersham Pharmacia Biotech) diluted 1:1000 in PBS+4% BSA was added to each well and the plate was incubated again for 30 min at room temperature before washing as above. The plate was developed using 100 μL/well TMB Substrate Solution (Endogen) and the reaction was stopped by adding an equiv.ual volume of H2SO4 0.36 M. Finally, the absorbance was read at 450 nm using an Ultrospec® 300 spectrophotometer (Amersham-Pharmacia Biotech). The concentration of the test solution showing 50% inhibition as compared with the control was expressed as IC50 (μM).
38. RET Kinase Inhibitory Activity
Method: ELISA-Based In Vitro Kinase Assay
Recombinant Ret protein was expressed in Sf9 cells using the pBlueBacHis2C baculovirus expression vector. Ret was purified using an anion exchange Fast Flow Q-sepharose column (Amersham-Pharmacia Biotech) followed by HiTrap™-nickel affinity column (Amersham-Pharmacia Biotech). Purified Ret was used in the ELISA-based kinase assay to screen inhibitors as described above. The kinase reaction was performed in the presence of 50 mM Tris pH 7.5, 1 mM MnCl2, 5 mM MgCl2, 0.3 mM ATP, peptide substrate ([…]) (SEQ ID NO: 1) and purified Ret. The concentration of the test solution showing 50% inhibition as compared with the control was expressed as IC50 (μM).

Recombinant ALK kinase = target: T3, Recombinant ALK kinase (Homo sapiens, UniProt Q9UM73); experiment: ALK kinase inhibitory activity, ELISA-based in vitro kinase assay; format: biochemical
T3 construct: made in house; host or cells: Sf9 insect cells (baculovirus)
T3 sequence (Q9UM73 19-1620): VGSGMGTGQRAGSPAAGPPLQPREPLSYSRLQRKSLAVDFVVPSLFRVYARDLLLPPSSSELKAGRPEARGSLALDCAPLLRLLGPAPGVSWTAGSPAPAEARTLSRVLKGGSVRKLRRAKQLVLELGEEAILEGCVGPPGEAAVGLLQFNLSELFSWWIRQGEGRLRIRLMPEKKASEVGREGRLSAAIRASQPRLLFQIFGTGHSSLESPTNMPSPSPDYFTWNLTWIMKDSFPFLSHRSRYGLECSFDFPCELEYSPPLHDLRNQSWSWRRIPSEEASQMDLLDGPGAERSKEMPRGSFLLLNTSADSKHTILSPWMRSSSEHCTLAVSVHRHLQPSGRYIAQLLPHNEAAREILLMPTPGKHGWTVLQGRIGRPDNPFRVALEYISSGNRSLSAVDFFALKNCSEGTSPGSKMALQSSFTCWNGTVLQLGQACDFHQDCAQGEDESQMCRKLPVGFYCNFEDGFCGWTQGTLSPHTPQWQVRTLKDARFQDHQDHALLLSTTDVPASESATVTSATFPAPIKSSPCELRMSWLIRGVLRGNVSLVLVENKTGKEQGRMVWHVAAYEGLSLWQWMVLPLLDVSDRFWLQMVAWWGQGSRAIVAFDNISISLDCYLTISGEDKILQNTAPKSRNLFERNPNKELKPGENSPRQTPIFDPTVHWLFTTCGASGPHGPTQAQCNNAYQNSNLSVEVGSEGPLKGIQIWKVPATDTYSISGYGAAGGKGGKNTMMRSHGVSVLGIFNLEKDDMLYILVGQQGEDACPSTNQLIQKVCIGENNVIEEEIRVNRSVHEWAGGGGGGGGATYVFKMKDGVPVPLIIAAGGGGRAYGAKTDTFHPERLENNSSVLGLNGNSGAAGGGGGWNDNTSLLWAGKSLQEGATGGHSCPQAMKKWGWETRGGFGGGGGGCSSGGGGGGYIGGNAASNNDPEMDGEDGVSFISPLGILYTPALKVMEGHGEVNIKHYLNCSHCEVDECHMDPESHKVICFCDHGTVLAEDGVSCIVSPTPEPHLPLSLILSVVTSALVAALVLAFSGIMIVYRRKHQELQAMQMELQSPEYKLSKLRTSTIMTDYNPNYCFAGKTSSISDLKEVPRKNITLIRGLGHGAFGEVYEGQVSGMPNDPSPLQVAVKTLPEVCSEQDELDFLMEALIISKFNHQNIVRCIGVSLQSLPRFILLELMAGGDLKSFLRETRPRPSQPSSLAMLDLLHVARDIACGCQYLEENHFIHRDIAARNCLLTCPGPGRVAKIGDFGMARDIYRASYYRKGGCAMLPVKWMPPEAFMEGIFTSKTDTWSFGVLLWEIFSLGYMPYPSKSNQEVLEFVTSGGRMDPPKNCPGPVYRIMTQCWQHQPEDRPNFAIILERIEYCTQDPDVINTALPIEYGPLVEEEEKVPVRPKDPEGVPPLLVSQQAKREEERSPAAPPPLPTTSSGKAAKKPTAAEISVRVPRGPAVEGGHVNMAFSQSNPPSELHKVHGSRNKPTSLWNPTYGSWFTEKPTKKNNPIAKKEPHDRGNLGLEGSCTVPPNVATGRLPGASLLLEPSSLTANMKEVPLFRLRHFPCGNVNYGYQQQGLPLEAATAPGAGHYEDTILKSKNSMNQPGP
Outline: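 Sf9-expressed, purified recombinant ALK phosphorylated a plate-coated peptide substrate with 0.3 mM ATP, Mn2+/Mg2+, pH 7.5, 15 min at 30° C, after 10 min inhibitor preincubation. Phosphotyrosine was detected by anti-pTyr ELISA (TMB, A450); IC50 in μM is the concentration giving 50% inhibition relative to control.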

[2] = system: parent untransformed BaF3 cells; experiment: Tritiated thymidine uptake cell proliferation assay, parental BaF3 (control); format: cell-based; settings: Mus musculus, 3[H]-thymidine uptake, 72 h, medium with IL-3, read-out: BaF parental IC50
Outline: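 Control lines were parental BaF3 in IL-3-supplemented medium and ALK-, Abl- or RET-negative U937, seeded at 10 000 cells/well with serial inhibitor dilutions for 72 h at 37 °C. ³H-thymidine (1 μCi/well) was added for the final 16 h; IC50 (μM) is the concentration halving uptake versus DMSO.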

[3] = system: NPM/ALK positive SUDHL-1 cells; experiment: Tritiated thymidine uptake cell proliferation assay, SUDHL-1; format: cell-based; settings: 3[H]-thymidine uptake, 72 h
Method: Inhibition of the proliferation of NPM/ALK positive cells
(§1) Method: Tritiated Thymidine Uptake Cell Proliferation Assay
(§2) The following procedure was used with parent untransformed BaF3 cells, BaF3 cells transformed with the oncogenic fusion protein NPM/ALK, NPM/ALK positive SUDHL-1 cells, ALK-negative U937 cells, NPM/ALK positive KARPAS-299 cells. The parent untransformed BaF3 cells and Alk-negative U937 cells are used as controls. Cells were seeded in U-bottomed 96-well plates at 10 000 cells/well in a volume of 100 μL in supplemented medium. In the case of the parent untransformed BaF3 cells, the medium was supplemented with IL-3. Serial dilutions of inhibitors were added to the appropriate wells and volumes adjusted to 200 μL. Controls were treated with the equivalent volume of vehicle, DMSO, alone. Plates were incubated at 37° C. for 72 h. ^3[H]-thymidine (1 μCi/well) was added for the last 16 h of incubation. Cells were harvested on to paper filters and ^3[H]-thymidine incorporation was measured using a β scintillation counter (1430 MicroBeta, Wallac, Turku, Finland). The 50% inhibitory concentration (IC50) was defined as the concentration of inhibitor, expressed in micromolar, that gave a 50% decrease in ^3[H]-thymidine uptake compared with controls.

[4] = target: T4, BaF3 cells transformed with the oncogenic fusion protein NPM/ALK (Homo sapiens, UniProt Q9UM73); experiment: Tritiated thymidine uptake cell proliferation assay, BaF3 NPM/ALK; format: cell-based; settings: 3[H]-thymidine uptake, 72 h; read-out: BaF NPM/ALK IC50
T4 construct: fused on or other part: P06748 (Nucleophosmin)
T4 sequence (Q9UM73 whole entry, change not shown, the tested form may be a part): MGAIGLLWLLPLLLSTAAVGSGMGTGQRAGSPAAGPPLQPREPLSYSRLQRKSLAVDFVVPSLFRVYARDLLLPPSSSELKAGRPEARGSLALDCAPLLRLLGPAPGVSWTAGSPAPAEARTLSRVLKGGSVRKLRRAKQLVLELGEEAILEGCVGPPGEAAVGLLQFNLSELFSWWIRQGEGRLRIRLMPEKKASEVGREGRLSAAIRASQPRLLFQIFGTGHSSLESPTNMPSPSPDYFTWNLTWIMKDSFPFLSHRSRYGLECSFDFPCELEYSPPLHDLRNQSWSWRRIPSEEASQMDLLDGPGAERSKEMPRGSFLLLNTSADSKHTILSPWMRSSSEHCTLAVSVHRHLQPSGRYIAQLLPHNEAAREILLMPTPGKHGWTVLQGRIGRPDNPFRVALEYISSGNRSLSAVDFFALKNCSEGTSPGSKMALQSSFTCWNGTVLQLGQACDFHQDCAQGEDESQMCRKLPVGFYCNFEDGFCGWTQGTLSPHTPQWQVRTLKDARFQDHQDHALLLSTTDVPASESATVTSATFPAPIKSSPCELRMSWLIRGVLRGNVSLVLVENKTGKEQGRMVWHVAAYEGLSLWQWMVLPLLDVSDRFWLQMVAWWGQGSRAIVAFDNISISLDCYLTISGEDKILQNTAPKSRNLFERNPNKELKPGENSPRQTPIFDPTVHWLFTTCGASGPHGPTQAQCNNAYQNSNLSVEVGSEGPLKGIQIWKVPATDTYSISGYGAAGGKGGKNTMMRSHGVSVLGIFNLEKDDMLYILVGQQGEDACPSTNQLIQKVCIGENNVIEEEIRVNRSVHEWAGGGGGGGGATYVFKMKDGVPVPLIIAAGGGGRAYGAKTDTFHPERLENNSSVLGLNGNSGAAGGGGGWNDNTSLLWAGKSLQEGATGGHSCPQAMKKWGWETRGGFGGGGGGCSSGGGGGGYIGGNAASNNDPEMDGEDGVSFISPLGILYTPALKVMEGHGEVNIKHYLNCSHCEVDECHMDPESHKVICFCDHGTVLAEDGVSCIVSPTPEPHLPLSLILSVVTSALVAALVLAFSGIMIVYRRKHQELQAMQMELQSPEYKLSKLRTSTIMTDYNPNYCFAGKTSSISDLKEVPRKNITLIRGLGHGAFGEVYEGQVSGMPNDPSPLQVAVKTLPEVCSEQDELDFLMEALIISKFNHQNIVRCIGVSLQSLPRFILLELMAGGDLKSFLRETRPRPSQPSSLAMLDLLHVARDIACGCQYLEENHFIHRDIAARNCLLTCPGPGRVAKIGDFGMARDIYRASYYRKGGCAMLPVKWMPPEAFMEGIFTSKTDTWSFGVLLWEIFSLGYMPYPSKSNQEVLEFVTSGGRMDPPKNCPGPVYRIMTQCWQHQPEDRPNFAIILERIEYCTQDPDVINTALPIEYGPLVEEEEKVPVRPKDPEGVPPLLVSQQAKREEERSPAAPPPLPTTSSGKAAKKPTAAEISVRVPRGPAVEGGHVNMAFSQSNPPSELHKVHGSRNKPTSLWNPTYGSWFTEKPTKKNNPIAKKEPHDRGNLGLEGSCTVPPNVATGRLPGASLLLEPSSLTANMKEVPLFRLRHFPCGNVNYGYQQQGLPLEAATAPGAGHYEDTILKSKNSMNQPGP
Outline: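 Cells were seeded at 10 000/well with serial inhibitor dilutions or DMSO vehicle and incubated 72 h at 37 °C, with ^3[H]-thymidine (1 μCi/well) added for the final 16 h. Incorporation was read by β scintillation counting. IC50 (μM) is the concentration giving a 50% decrease in uptake versus controls.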

ALK-negative U937 cells = experiment: Tritiated thymidine uptake cell proliferation assay, U937 (control); format: cell-based; settings: Homo sapiens, U-937; 3[H]-thymidine uptake, 72 h
Method: as §1
as §2, with “with controls. […]” for “with controls.”
as §2, with “RET-PTC2, or RET-negative 11937” for “NPM/ALK, NPM/ALK positive SUDHL-1 cells, ALK-negative U937 cells, NPM/ALK positive KARPAS-299”, “RET-negative” for “Alk-negative”

[5] = purified rALK, 0.3 mM ATP, read-out: ALK IC50

Structure (SMILES) | IC50 [1] [µM] | IC50 (Recombinant Ret protein) [µM] | IC50 (Recombinant ALK kinase; [5]) [µM] | IC50 [3] [µM] | GI50 [4] [µM] | melting point [°C] | IC50 (ALK-negative U937 cells) [µM] | IC50 (Recombinant ALK kinase; repeated determinations, 1st, read-out: ALK IC50, 1st determination) [µM] | IC50 (Recombinant ALK kinase; repeated determinations, 2nd or 'then', read-out: ALK IC50, 2nd / subsequent determination) [µM] | ALK IC50, 3rd determination (Recombinant ALK kinase; repeated determinations, 3rd) | IC50 [2] [µM]
O=C(CSc1ccccc1)c1ccc2[nH]c3ncc(Cl)cc3c2c1 [R275, 1-(3-Chloro-9H-pyrido[2,3-b]indol-6-yl)-2-phenylsulfanylethanone] | > 100 | 27 | 20 ± 0.6 | > 25 | 8 | – | – | – | – | – | 2
CCN(CC)CCCOc1ccc(-c2ccc3[nH]c4ncc(Cl)cc4c3c2)cc1 [R337, 3-(4-(3-chloro-9H-pyrido[2,3-b]indol-6-yl)phenoxy)-N,N-diethylpropan-1-amine] | – | – | 31 ± 9 | 2.4 | 2.5 | – | 1.1 | – | – | – | 2.6
CCN(CC)CCCOc1ccc(-c2ccc3[nH]c4ncc(/C=C/c5ccccc5)cc4c3c2)cc1 [R338, N,N-diethyl-3-(4-(3-(2′-phenylethenyl)-9H-pyrido[2,3-b]indol-6-yl)phenoxy)propan-1-amine] | – | – | – | 0.4 | 0.5 | – | 0.4 | – | – | – | 0.4
CCN(CC)CCCOc1ccc(-c2ccc3[nH]c4ncc(C=Cc5ccccc5)cc4c3c2)cc1 [R340] | – | – | 7 ± 1.5 | 0.7 | 1.2 | – | 0.5 | – | – | – | 1
CN1CCN(CCOc2ccc(-c3ccc4[nH]c5ncc(Cl)cc5c4c3)cc2)CC1 [R347, 3-chloro-6-(4-(2-(4-methylpiperazin-1-yl)ethoxy)phenyl)-9H-pyrido[2,3-b]indole] | – | – | 7.8 ± 0.9 | 2.6 | 2.5 | – | 4.6 | – | – | – | 2.4
COc1ccc(/C=C/c2ccc3[nH]c4ncc(Cl)cc4c3c2)cc1 [R350, (E)-3-chloro-6-(2′-(4-methoxyphenyl)ethenyl)-9H-pyrido[2,3-b]indole] | – | – | – | > 100 | > 100 | – | > 100 | 5.1 | 35 | inactive | > 100

Further lines, with some results ahead:

IC50 [1] [µM] | IC50 (Recombinant Ret protein) [µM] | IC50 (Recombinant ALK kinase; [5]) [µM] | IC50 [3] [µM] | GI50 [4] [µM] | melting point [°C] | IC50 (ALK-negative U937 cells) [µM] | IC50 (Recombinant ALK kinase; repeated determinations, 1st, read-out: ALK IC50, 1st determination) [µM] | IC50 (Recombinant ALK kinase; repeated determinations, 2nd or 'then', read-out: ALK IC50, 2nd / subsequent determination) [µM] | ALK IC50, 3rd determination (Recombinant ALK kinase; repeated determinations, 3rd) | Structure (SMILES) | IC50 [2] [µM]
23 | 1 | 1.2 ± 0.2 | – | > 50 | > 220 | – | – | – | – | COc1ccc(-c2cnc3[nH]c4ccccc4c3c2)cc1 [R278, 3-(4-methoxyphenyl)-9H-pyrido[2,3-b]indole] | > 50
1.8 | 1.1 | 0.5 ± 0.3 | > 100 | > 100 | – | – | – | – | – | C(=C\c1cnc2[nH]c3ccccc3c2c1)/c1ccccc1 [R281, 3-(2′-phenylethenyl)-9H-pyrido[2,3-b]indole] | > 100
> 100 | 4.1 | 2.1 ± 0.5 | 59 | > 100 | – | – | – | – | – | COc1ccc(-c2ccc3c(n2)[nH]c2ccccc23)cc1 [R299, 2-(4-methoxyphenyl)-9H-pyrido[2,3-b]indole] | > 100
– | – | 23 ± 12 | > 100 | 0.21 ± 0.01 | – | 13 | – | – | – | O=[N+]([O-])c1ccccc1Nc1ccnc2[nH]c3ccccc3c12 [R323, N-(2-nitrophenyl)-9H-pyrido[2,3-b]indol-4-amine] | > 100
– | – | 13 ± 2 | 3.6 | 3 ± 0.8 | – | 1.9 | – | – | – | O=[N+]([O-])c1ccccc1Nc1ccc2c(n1)[nH]c1ccc(/C=C/c3ccccc3)cc12 [R332, N-(2-nitrophenyl)-6-(2′-phenylethenyl)-9H-pyrido[2,3-b]indol-2-amine] | 20 ± 1
– | – | 11 ± 0.1 | 48 | 74 | – | 17 | – | – | – | CCCC#Cc1ccc2c(n1)[nH]c1ccccc12 [R341, 2-(pent-1-ynyl)-9H-pyrido[2,3-b]indole] | 70
– | – | – | 21 | > 180 | – | 33 | – | – | – | C(#Cc1ccc2c(n1)[nH]c1ccccc12)c1ccccc1 [R342, 2-(phenylethynyl)-9H-pyrido[2,3-b]indole] | > 100
